Experiments:
Assay type in all cases: cell-based
[1] = tested on: P. aeruginosa and E. coli; test: Effect of pooled human serum on antibacterial activity
Procedure: (vi) Preparation of serunl Blood was collected from five volunteers and allowed to clot at room temperature for 4 h. The blood was then centrifuged for 15 min at 1500 g, and the serum was removed and pooled. The serum complement was inactivated by heating at 56° C. for 30 min.
(viii) Antibacterial activity of the peptides. The antibacterial activity of the diastereomers was examined in sterile 96-well plates (Nunc F96 microtiter plates) in a final volume of 100 μL as follows: Aliquots (50 μl) of a suspension containing bacteria at a concentration of 10^6 Colony-Forming Units (CFU)/ml LB (Lauria broth) medium were added to 50 μL of water or 66% pooled normal human serum in PBS, containing the peptide in 2-fold serial dilutions. Growth inhibition was determined by measuring the absorbance at 492 nm with a Microplate autoreader El309 (Bio-tek Instruments), following incubation for 18-20 h at 37° C. […] The bacteria used were: Escherichia coli D21, Pseudomonas aeruginosa ATCC 27853, Acinetobacter calcoaceticus Acl1, Salmonella typhimurium LT2, Bacillus megaterium Bml1, Micrococcus luteus ATCC 9341, Bacillus subtilis ATCC 6051.

[2] = tested on: Bacillus megaterium Bm11; test: Antibacterial activity (MIC), growth inhibition in 96-well plates; conditions: 100% inhibition of growth after 18-20 h at 37° C.
[3] = tested on: Bacillus subtilis ATCC 6051; test: as above; conditions: 100% inhibition of growth after 18-20 h at 37° C.
[4] = tested on: Acinetobacter calcoaceticus Ac11; test: as above; conditions: 100% inhibition of growth after 18-20 h at 37° C.
[5] = tested on: human red blood cells (hRBC); test: Hemolysis of human red blood cells; conditions: 50 μM peptide, 30 min at 37° C.
Procedure: (ix) Hemolysis of human red blood cells. The peptides were tested for their hemolytic activities against human red blood cells (hRBC). Fresh hRBC with EDTA were rinsed 3 times with PBS (35 mM phosphate buffer/0.15 M NaCl, pH 7.3) by centrifugation for 10 min at 800 g and resuspended in PBS. Peptides dissolved in PBS were then added to 50 μL of a solution of the stock hRBC in PBS to reach a final volume of 100 μL (final erythrocyte concentration, 5% v/v). The resulting suspension was incubated under agitation for 30 min at 37° C. The samples were then centrifuged at 800 g for 10 min. Release of hemoglobin was monitored by measuring the absorbance of the supernatant at 540 nm. Controls for zero hemolysis (blank) and 100% hemolysis consisted of hRBC suspended in PBS and Triton 1%, respectively.

[6] = tested on: Escherichia coli D21; test: Antibacterial activity (MIC), growth inhibition in 96-well plates
[7] = tested on: Pseudomonas aeruginosa ATCC 27853; test: Antibacterial activity (MIC), growth inhibition in 96-well plates; also synergy with tetracycline
Procedure: (viii) Antibacterial activity of the peptides.
Antibacterial activity of the mixtures was determined as described in Experimental procedures, section (xii).

[8] = 100% inhibition of growth after 18-20 h at 37° C.

dermaseptin S [reference compound]
fold less active in the presence of serum [1]: 8-10 fold
Minimal Inhibitory Concentration B. megaterium (Bm11) [2]: 0.5 µM
Minimal Inhibitory Concentration B. subtilis (ATCC 6051) [3]: 4 µM
Minimal Inhibitory Concentration A. calcoaceticus (Ac11) [4]: 3 µM
% hemolysis at 50 μM peptide [5]: 9%
Minimal Inhibitory Concentration E. coli (D21) 0% Serum ([6]; 0% Serum): 6 µM
Minimal Inhibitory Concentration E. coli (D21) 33% Serum ([6]; 33% pooled human serum): 50 µM
Minimal Inhibitory Concentration E. coli (D21) [6, 8]: 6 µM
Minimal Inhibitory Concentration P. aeruginosa (ATCC-27853) 0% Serum ([7]; 0% Serum): 25 µM
Minimal Inhibitory Concentration P. aeruginosa (ATCC-27853) 33% Serum ([7]; 33% pooled human serum): 200 µM
Minimal Inhibitory Concentration P. aeruginosa (ATCC 27853) [7, 8]: 25 µM
